Biological target: Cationic trypsin (Bos taurus)
Test: Inhibitory constant against bovine trypsin for general specificity against serine proteases

Ki: > 5 µM
SMILES: Cc1c(F)c(Oc2cccc(C(=N)N)c2)nc(Oc2cccc(C(N)=O)c2)c1F [3-[6-(3-Carbamimidoyl-phenoxy)-3,5-difluoro-4-methyl-pyridin-2-yloxy]-benzamide]

— BindingDB's records for doi:10.1021/jm0200660 (Berlex Biosciences, 2002)
